What was measured:
[1] = tested on: intracellular sphingolipids, CCRF-CEM cells; assay: LC/MS/MS analysis of intracellular sphingolipids, CCRF-CEM; type: cell-based, human; details: for increase in corresponding dihydroceramide over sphinganine plus GT-11 alone: fatty acid in addition to sphinganine plus GT-11, six hours, P<0.05
Procedure: LC/MS/MS analysis of intracellular sphingolipids. Sphingolipids were separated using an Agilent 1200 HPLC (LC) and determined by ESI/MS/MS performed on a AB SCIEX 4000 QTRAP Hybrid Triple Quadrupole/Linear Ion Trap mass spectrometer (MS), operating in a multiple reaction monitoring positive ionization mode as described previously with moderate modifications (25). Briefly, 50 μL of a solution (1 μM) of internal sphingolipid standards (including -sphingosine, -sphinganine, -sphingosine-1-phosphate, and -ceramide) was added to each cell pellet sample. Lipids of each sample were extracted twice with 2 mL of the ethyl acetate/isopropyl alcohol/water (60:28:12; v:v) solvent system. Supernatants were transferred to glass tubes (Kimble Chase) and evaporated under air (10 PSI) at 40° C. After reconstitution in methanol (4 mL), 1 ml of each sample was separated for the determination of lipid phosphate. Remaining sample (3 mL) was dried and used for sphingolipid quantification. For ESI/MS/MS, the dried lipid sample was dissolved in mobile phase A. Samples were injected (10 μL) and separated on a Spectra C8SR, 150×3.0 mm, 3-μm particle size column using gradient-elution (mobile phase A/B, prepared as previously described).
Data acquisition, peak integration and analyte quantitation were performed using ABI/SCIEX Analyst 1.4.2 Software. Sphingolipid data were normalized to lipid phosphate as previously described (26). Briefly, samples were dried under air (10 PSI) and lipids were extracted using the method of Bligh and Dyer (27). Of importance for phosphate assay, only Kimble Chase disposable borosilicate tubes were used for minimal sample contamination. Organic phase was transferred to glass tubes and a known volume was separated to a new tube and dried at 80° C. Phosphate standards and dried samples were then heated with ashing buffer (water:10 N:70% [40:9:1]) at 160° C. overnight. Samples were then incubated with ammonium molybdate and ascorbic acid as previously described, and absorbance ([…]) was read using a SpectraMax.
CCRF-CEM cells were treated with drug/fatty acid vehicles (control), GT-11 (0.5 μM) alone, sphinganine (4 μM) alone or sphinganine (4 μM) plus GT-11 (0.5 μM) for six hours and subsequently prepared for sphingolipid analysis.
CCRF-CEM cells were treated with GT-11 (0.5 μM) alone, sphinganine (1 μM) alone or sphinganine (1 μM) plus GT-11 (0.5 μM) for six hours and prepared for quantitative analysis. DHCers were normalized to control and plotted as fold change (bar, z-axis). * indicates significance, with P<0.05. […] CCRF-CEM cells were treated with sphinganine (1 μM) plus GT-11 (0.5 μM) with and without specific solubilized fatty acids (carbon chain length (CX) and saturation (:X), Ex: C20:1=fatty acid with 20 carbons and one desaturation) for six hours and prepared for quantitative sphingolipid analysis. Dihydroceramides were normalized to control cells that received sphinganine plus GT-11 with no fatty acid and plotted as fold change (bar, z-axis). * indicates significance, with P<0.05.

[2] = tested on: NCI-H146 small cell lung cancer cells; assay: DIMSCAN cytotoxicity assay, NCI-H146; type: cell-based, human; details: NCI-H146, fatty acid 5 micromolar
From the text: (§1) Cell culture. The pre-T acute lymphoblastic leukemia cell lines MOLT-4 and CCRF-CEM, small cell lung cancer cell line NCI-H146, non-small cell lung cancer cell line NCI-H1792, colon cancer cell lines LoVo and HT-29, and breast cancer cell line MCF-7, were purchased from American Type Culture Collection, Manassas, Va., and grown at 20%/5% and 5%/5%, respectively. COG-LL-317 and COG-LL-332 pre-T acute lymphoblastic leukemia cell lines were obtained from the TTUHSC Cancer Center Cell Repository and grown at 5%/5%. Cell line identities were verified by short tandem repeat analysis and mycoplasma testing was performed. Cell lines were maintained in RPMI-1640 medium supplemented with 10% fetal bovine serum (FBS, Invitrogen) in humidified, 37° C. incubators. For all experiments, ALL cell lines were seeded at 2. cells/mL in RPMI-1640 medium supplemented with 15% fetal bovine serum. Solid tumor cell lines were plated at 5×cells/mL in RPMI-1640 medium supplemented with 10% fetal bovine serum.
(§2) Cytotoxicity Assay. Cytoxicity is determined using the DIMSCAN assay system (R. Proffitt et al., Cytometry 24, 204-213 (1996); T. Frgala et al., Proc. AACR, 36, 303 (1995). The system employs digital imaging microscopy to quantify viable cells, which selectively accumulate fluorescein diacetate to become brightly fluorescent. The system is capable of measuring cytotoxicity over a 4-5 log dynamic range by quenching the residual fluorescence of dead and dying cells with eosin Y and quantifying the total fluorescence of viable cells using digital thresholding. Measured fluorescence is directly proportionate to the number of viable cells.
(§3) In brief, 5,000 to 25,000 cells/well depending on the cell line (5,000 for solid tumor, 25,000 for ALL cell lines) were replicate plated into 60 wells of a 96-well tissue culture plate in 0.1 cc media and allowed to attach or recover overnight. Drug(s) are then added in 0.05 cc media to the final concentrations indicated. […] Total fluorescence of viable cells is then measured by digital imaging microscopy and the signal normalized to control cells. […]

LoVo colon cancer cells = assay: DIMSCAN cytotoxicity assay, LoVo; type: cell-based, human; details: fatty acid 5 micromolar
From the text: as §1, §2, §3

[3] = tested on: NCI-H1792 non-small cell lung cancer cells; assay: DIMSCAN cytotoxicity assay, NCI-H1792; type: cell-based; details: NCI-H1792, fatty acid 5 micromolar
From the text: as §1
as §2, with “cells. A comparison of the total fluorescence of a drug-treated cell population to the fluorescence of a similar number of untreated cells yields a survival fraction.” for “cells.”
(§4) In brief, 5,000 to 25,000 cells/well depending on the cell line (5,000 for solid tumor, 25,000 for ALL cell lines) were replicate plated into 60 wells of a 96-well tissue culture plate in 0.1 cc media and allowed to attach or recover overnight. […]

[4] = tested on: MCF-7 breast cancer cells; assay: DIMSCAN cytotoxicity assay, MCF-7; type: cell-based; details: MCF-7, fatty acid 5 micromolar
From the text: as §1
as §2, with “cells. A comparison of the total fluorescence of a drug-treated cell population to the fluorescence of a similar number of untreated cells yields a survival fraction.” for “cells.”
as §4

CCRF-CEM = tested on: CCRF-CEM
Procedure: Statistical analyses. Descriptive statistics and significance testing were performed using Microsoft Excel. The Excel function “t.test” was used for Student's T-testing (two-tailed, type-2). Propagated standard deviations were calculated using standard methods. Correlation analyses were performed using Sigmaplot 11 software. […]
Due to the confounding effect of in vitro fatty acid conversion, correlation analyses were used to identify significant relationships between absolute levels of specific sphingolipids and cytotoxicity. […]

MOLT-4 ALL cells = assay: DIMSCAN cytotoxicity assay, MOLT-4; type: cell-based, human; details: MOLT-4, sphinganine 1 μM, GT-11 0.5 μM, 48 hours
From the text: as §1
as §2, with “cells. A comparison of the total fluorescence of a drug-treated cell population to the fluorescence of a similar number of untreated cells yields a survival fraction. […]” for “cells.”
(§5) The addition of C22:0-fatty acid, but not C18:0 or C22:1 fatty acids, increased cytotoxicity (FIGS. 7A-7F). […] Cytotoxicity was measured using DIMSCAN, and data was normalized to control and plotted as survival fraction (y-axis). […]

COG-LL-317 = assay: DIMSCAN cytotoxicity assay, COG-LL-317; type: cell-based; details: COG-LL-317, sphinganine 1 μM, GT-11 0.5 μM, 48 hours
From the text: as §1
as §2, with “cells. A comparison of the total fluorescence of a drug-treated cell population to the fluorescence of a similar number of untreated cells yields a survival fraction. […]” for “cells.”
as §5

[5] = tested on: pre-T acute lymphoblastic leukemia cell lines CCRF-CEM, MOLT-4, COG-LL-317 and COG-LL-332; assay: DIMSCAN cytotoxicity assay across the four pre-T ALL cell lines; type: cell-based, human; details: COG-LL-317, COG-LL-332, CCRF-CEM, 4-HPR 0-9 μM, 48 hours
From the text: as §1, with “For all experiments, ALL cell lines were seeded at 2. cells/mL in RPMI-1640 medium supplemented with 15% fetal bovine serum. Solid tumor cell lines were plated at 5×cells/mL in RPMI-1640 medium supplemented with 10% fetal bovine serum.” left out
as §2, with “cells. […]” for “cells.”

COG-LL-332 = assay: DIMSCAN cytotoxicity assay, COG-LL-332; type: cell-based; details: COG-LL-332, sphinganine 1 μM, GT-11 0.5 μM, 48 hours
From the text: as §1
as §2, with “cells. A comparison of the total fluorescence of a drug-treated cell population to the fluorescence of a similar number of untreated cells yields a survival fraction. […]” for “cells.”
as §5

CCCCCCCCCCCCCCCCCCCC(=O)O [C20:0-fatty acid]
increase in C22:0-DHCer over sphinganine plus GT-11 alone ([1]; fatty acid 5 μM in addition to sphinganine 1 μM plus GT-11 0.5 μM, six hours, P<0.001): 12 fold | increase in corresponding dihydroceramide over sphinganine plus GT-11 alone [1]: significant increases

CCCCCCCCCCCCCCCC(=O)O [C16:0-fatty acid]
increase in corresponding dihydroceramide over sphinganine plus GT-11 alone [1]: significant increases

CCCCCCCCCCCCCCCCCCCCCCCC(=O)O [C24:0-fatty acid]
increase in corresponding dihydroceramide over sphinganine plus GT-11 alone [1]: significant increases | effect of fatty acid on fenretinide cytotoxicity [2]: did not increase cytotoxicity | effect of fatty acid on fenretinide cytotoxicity (LoVo colon cancer cells): did not increase cytotoxicity | effect of fatty acid on fenretinide cytotoxicity [3]: did not increase cytotoxicity | effect of fatty acid on fenretinide cytotoxicity [4]: did not increase cytotoxicity

CCCCCCCCCCCCCCC[C@@H](O)[C@@H](N)CO [Sphinganine, (2S,3R)-2-aminooctadecane-1,3-diol, reference compound]
increase of total ceramide ([1]; sphinganine 4 μM alone, six hours, normalized to control, P<0.001): 1.5 fold | Pearson Coef. (r), sphingolipid level vs cytotoxicity (CCRF-CEM): −0.21 | Spearman Coef. (ρ), sphingolipid level vs cytotoxicity (CCRF-CEM): −0.30

CCCCCCCC/C=C\CCCCCCCCCCCCCC(=O)O [C24:1-fatty acid]
increase in corresponding dihydroceramide over sphinganine plus GT-11 alone [1]: significant increases

CCCCCCCCCCCCCCCCCC(=O)O [C18:0-fatty acid]
effect of fatty acid co-treatment on cytotoxicity of sphinganine with GT-11 (MOLT-4 ALL cells): not | effect of fatty acid co-treatment on cytotoxicity of sphinganine with GT-11 (COG-LL-317): not | effect of fatty acid on fenretinide (4-HPR) cytotoxicity [5]: not | effect of fatty acid on fenretinide cytotoxicity [2]: did not increase cytotoxicity | effect of fatty acid on fenretinide cytotoxicity (LoVo colon cancer cells): did not increase cytotoxicity | effect of fatty acid on fenretinide cytotoxicity [3]: did not increase cytotoxicity | effect of fatty acid co-treatment on cytotoxicity of sphinganine with GT-11 (COG-LL-332): not | effect of fatty acid on fenretinide cytotoxicity [4]: did not increase cytotoxicity

CCCCCCCCCCCCCC(=O)O [C14:0-fatty acid]
increase in corresponding dihydroceramide over sphinganine plus GT-11 alone [1]: significant increases
